# Calls of active or inactive are those of the source.
# Key:
# [1] = target: Voltage-gated inwardly rectifying potassium channel KCNH2 (Homo sapiens, UniProt Q12809); conditions: Potency;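 note: confirmatory quantitative high-throughput screen measuring inhibition of hERG channel activity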
# Cytochrome P450 2C9 = Cytochrome P450 2C9 (Homo sapiens, UniProt P11712)
# [2] = target: Cyclin-dependent kinase 2 (Homo sapiens, UniProt P24941); assay: inhibition of human CDK2/cyclin A – biochemical, cherry-picked samples, selectivity assay for Dyrk1A inhibitor project, dose response (AID 602127)
# [3] = target: Dual specificity protein kinase CLK1 (Homo sapiens, UniProt P49759); assay: inhibition of human CLK1 activity – biochemical, cherry-picked samples, selectivity assay for Dyrk1A inhibitor project, dose response (AID 588811)
# [4] = target: Peroxisome proliferator-activated receptor gamma/Nuclear receptor coactivator 2 (Homo sapiens, UniProt P37231); assay type: functional;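 note: agonist potency for raising coactivator recruitment to the receptor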
# [5] = target: T1, Endoribonuclease toxin MazF (Escherichia coli K-12, UniProt P0AE70); assay: substrate-only fluorescence increase artefacts – biochemical, single-stranded RNase substrate, counter-screen for MazEF activator project, dose response (AID 588502); assay type: functional
# [6] = system: Streptococcus sp. 'group A'; assay: Streptococcus pyogenes SK(-)GAS viability under kanamycin – luminescence, BacTiterGlo, confirmation, counter-screen for streptokinase expression inhibitor project, dose response (AID 1900); assay type: functional, organism-based
# [7] = target: Peroxisome proliferator-activated receptor gamma/Nuclear receptor coactivator 1 (Homo sapiens, UniProt P37231); assay type: functional;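 note: agonist potency as compounds enhance coactivator SRC-1 recruitment to PPARgamma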
# Streptococcus = assay: GAS UMAA2166 growth inhibition – luminescence, BacTiterGlo, counter-screen for streptokinase expression inhibitor project, dose response (AID 1915); assay type: functional, organism-based;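 note: potency for reduction of bacterial viability or growth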
# [8] = target: Peroxisome proliferator-activated receptor gamma/Nuclear receptor coactivator 3 (Homo sapiens, UniProt P37231); assay type: functional;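 note: agonist potency for raising coactivator recruitment to the receptor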
# [9] = target: T1, Endoribonuclease toxin MazF; assay: activation of MazEF endoribonuclease cleavage – biochemical, fluorescence, single-stranded RNA substrate, uHTS hits, dose response (AID 588481); assay type: functional
# INS1 = assay: INS-1E survival protection against cytokine death – cell-based, luminescence, retest, dose response (AID 449756); assay type: functional; conditions: Rattus norvegicus;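 note: cell death triggered by IL-1 beta plus TNF-alpha plus IFN-gamma mixture; protective hits raise ATP signal compared with cytokine alone wells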
# CAAX prenyl protease 1 = CAAX prenyl protease 1 (Saccharomyces cerevisiae S288c, UniProt P47154); assay: yeast CAAX protease Ste24 inhibition – biochemical, S. cerevisiae, plate reader, cherry-pick, dose response (AID 488815)
# [10] = HEK-293T viability loss after treatment – luminescence, T-cell screen hits, cytotoxicity control for TCR NF-kB inhibitor project, dose response (AID 489026); assay type: functional, cell-based;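 note: cells exposed to compound about 14 hours before the viability readout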
# CAAX prenyl protease 2 = CAAX prenyl protease 2 (Homo sapiens, UniProt Q9Y256); assay: inhibition of Ras-converting CAAX protease Rce1 – biochemical, yeast membranes, quenched-peptide fluorescence, cherry-pick, dose response (AID 588849)
# BJ [11] = assay: BJ-TERT-LT-ST fibroblast viability loss – cell-based, RAS-independent, luminescence, dose response (AID 1935); assay type: functional; conditions: Homo sapiens;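 note: BJ fibroblasts immortalized with TERT plus LT and ST oncogenes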
# [12] = DRD fibroblast viability loss – cell-based, non-viral oncogenic, luminescence, dose response (AID 1934); assay type: functional; conditions: Homo sapiens
# BJ [13] = assay: cells; assay type: functional, cell-based; conditions: Homo sapiens
# Trypsin = Trypsin (Sus scrofa, UniProt P00761); assay: trypsin protease activity blockade – biochemical, quenched peptide fluorescence, cherry-pick, selectivity assay for Rce1 protease inhibitor project, dose response (AID 488789)
# [14] = fluconazole-exposed Candida albicans growth modulators – fluorescence, retest, confirmation (AID 2467); assay type: functional, cell-based
# BJ [15] = assay: BJ-TERT fibroblast viability loss – cell-based, RAS-independent, luminescence, dose response (AID 1933); assay type: functional; conditions: Homo sapiens
# [16] = NIH-3T3 fibroblast cytotoxicity, dose response, cytotoxicity control, cell-based, fluorescence, Alamar Blue, secondary assay (AID 2327); assay type: functional;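 note: NIH-3T3 mouse fibroblasts cultured with fluconazole at 8 µg/mL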
# T1 sequence (P0AE70 whole entry): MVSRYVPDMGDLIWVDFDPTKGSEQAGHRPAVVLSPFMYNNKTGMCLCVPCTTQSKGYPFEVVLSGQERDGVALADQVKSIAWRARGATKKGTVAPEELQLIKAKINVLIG
# Sequence of CAAX prenyl protease 2 (Q9Y256 whole entry): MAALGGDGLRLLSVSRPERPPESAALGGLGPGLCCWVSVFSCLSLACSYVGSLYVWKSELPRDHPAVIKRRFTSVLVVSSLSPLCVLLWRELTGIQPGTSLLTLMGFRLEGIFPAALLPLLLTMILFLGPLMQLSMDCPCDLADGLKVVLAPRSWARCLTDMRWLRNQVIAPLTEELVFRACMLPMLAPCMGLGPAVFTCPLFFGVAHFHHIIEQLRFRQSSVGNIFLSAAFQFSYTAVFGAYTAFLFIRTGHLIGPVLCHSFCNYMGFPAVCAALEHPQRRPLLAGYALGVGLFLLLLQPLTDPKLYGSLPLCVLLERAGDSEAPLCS
# Sequence of Dual specificity protein kinase CLK1 (P49759 whole entry): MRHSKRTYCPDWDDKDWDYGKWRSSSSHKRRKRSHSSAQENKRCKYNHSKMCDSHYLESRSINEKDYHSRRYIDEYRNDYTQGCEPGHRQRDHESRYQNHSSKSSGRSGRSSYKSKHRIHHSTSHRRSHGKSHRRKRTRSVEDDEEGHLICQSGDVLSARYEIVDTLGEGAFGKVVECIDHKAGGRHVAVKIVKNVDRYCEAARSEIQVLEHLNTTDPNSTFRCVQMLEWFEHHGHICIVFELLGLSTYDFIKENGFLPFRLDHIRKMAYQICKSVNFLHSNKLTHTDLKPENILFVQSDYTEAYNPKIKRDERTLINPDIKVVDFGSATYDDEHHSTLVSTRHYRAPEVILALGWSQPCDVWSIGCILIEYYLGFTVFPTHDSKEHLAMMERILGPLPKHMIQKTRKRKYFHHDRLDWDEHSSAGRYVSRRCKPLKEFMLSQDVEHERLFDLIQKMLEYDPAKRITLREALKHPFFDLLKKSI
# Sequence of Voltage-gated inwardly rectifying potassium channel KCNH2 (Q12809 whole entry): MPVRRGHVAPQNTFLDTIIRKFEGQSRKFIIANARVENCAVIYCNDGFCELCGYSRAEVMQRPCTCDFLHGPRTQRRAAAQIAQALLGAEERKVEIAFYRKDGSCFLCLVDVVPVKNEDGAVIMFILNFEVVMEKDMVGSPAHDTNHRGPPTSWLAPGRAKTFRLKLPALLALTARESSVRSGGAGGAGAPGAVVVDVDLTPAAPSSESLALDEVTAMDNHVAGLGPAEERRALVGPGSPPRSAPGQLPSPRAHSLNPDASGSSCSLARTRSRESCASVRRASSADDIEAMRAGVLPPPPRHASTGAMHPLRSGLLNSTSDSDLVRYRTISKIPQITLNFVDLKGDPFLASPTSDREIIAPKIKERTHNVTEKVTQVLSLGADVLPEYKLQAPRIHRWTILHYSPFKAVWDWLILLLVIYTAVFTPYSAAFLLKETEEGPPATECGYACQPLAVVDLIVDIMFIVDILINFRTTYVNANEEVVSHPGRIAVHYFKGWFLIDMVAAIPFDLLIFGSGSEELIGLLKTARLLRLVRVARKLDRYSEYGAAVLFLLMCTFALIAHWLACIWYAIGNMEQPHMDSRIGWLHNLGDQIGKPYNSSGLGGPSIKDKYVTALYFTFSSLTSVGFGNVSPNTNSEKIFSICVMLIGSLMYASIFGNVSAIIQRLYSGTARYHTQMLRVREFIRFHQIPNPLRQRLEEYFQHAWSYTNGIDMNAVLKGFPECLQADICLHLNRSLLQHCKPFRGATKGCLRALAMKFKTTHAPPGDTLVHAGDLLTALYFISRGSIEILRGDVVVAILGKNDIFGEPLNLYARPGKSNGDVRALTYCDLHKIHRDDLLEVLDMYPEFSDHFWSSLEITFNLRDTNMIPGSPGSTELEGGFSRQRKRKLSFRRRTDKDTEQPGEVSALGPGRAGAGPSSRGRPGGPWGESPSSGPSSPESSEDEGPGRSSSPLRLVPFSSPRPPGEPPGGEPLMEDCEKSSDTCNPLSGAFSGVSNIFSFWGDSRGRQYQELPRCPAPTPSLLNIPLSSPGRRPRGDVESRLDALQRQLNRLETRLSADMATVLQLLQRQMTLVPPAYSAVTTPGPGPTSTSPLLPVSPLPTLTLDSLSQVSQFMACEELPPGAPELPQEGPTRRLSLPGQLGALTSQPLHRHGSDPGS
# Sequence of CAAX prenyl protease 1 (P47154 whole entry): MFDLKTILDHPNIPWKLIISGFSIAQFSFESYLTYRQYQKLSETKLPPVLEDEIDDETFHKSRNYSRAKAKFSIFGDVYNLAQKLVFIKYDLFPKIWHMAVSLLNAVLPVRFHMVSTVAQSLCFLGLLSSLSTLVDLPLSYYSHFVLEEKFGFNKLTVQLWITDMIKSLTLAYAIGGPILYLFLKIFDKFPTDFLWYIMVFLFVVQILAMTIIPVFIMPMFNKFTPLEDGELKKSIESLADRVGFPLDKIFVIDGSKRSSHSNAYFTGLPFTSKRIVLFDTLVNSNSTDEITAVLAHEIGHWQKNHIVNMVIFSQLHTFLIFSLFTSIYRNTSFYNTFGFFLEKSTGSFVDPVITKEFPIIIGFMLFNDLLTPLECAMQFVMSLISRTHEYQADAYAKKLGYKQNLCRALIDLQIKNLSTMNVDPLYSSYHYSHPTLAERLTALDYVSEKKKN
# Sequence of Cytochrome P450 2C9 (P11712 whole entry): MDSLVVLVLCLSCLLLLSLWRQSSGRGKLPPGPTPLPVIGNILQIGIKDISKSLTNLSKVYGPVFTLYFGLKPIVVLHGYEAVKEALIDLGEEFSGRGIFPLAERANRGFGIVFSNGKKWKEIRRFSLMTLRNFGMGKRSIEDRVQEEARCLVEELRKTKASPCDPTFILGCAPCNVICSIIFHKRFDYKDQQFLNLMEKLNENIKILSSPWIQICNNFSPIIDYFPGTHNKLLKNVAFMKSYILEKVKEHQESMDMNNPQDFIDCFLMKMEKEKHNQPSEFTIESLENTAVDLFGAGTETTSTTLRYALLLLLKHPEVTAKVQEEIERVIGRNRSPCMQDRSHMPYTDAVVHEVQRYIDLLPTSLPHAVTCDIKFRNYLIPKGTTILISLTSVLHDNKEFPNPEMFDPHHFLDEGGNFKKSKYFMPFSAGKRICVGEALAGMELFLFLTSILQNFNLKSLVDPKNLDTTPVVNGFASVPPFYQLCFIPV
# Sequence of Trypsin (P00761 whole entry): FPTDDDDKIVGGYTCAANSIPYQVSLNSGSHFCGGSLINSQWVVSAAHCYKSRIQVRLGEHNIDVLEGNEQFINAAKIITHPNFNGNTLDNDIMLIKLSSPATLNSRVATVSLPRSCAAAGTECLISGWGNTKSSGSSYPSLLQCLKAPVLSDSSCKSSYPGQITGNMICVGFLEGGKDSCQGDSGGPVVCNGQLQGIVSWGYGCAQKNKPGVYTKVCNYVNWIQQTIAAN
smiles,measurement,setting,value
CC(C)COC(=O)OCN1C(=O)CN(CCN2CC(=O)N(COC(=O)OCC(C)C)C(=O)C2)CC1=O [SOBUZOXANE],AC50,[1],35.5 µM (inconclusive)
same,AC50,Cytochrome P450 2C9,39.8 µM (inconclusive)
Cc1ccsc1CN(C)c1ncnc2ccc(-c3ccoc3)cc12,AC50,[2],7.77 µM (active)
same,AC50,[3],0.0138 µM (active)
N#Cc1ccc(-c2ccccc2)nc1SCC(=O)c1cc2ccccc2oc1=O,EC50,[4],13.7 µM (not active)
same,EC50,[5],> 99 µM (inactive)
same,EC50,[6],0.862 µM (active)
same,EC50,[7],15.5 µM (not active)
same,EC50,Streptococcus,2.22 µM (active)
same,EC50,[8],16.4 µM (not active)
same,EC50,[9],> 99 µM (inactive)
Cc1ccc(-c2cc(-c3ccc(C)cc3)[n+](-c3ccccc3)c(-c3ccc(C)cc3)c2)cc1.[O-][Cl+3]([O-])([O-])[O-],AC50,INS1,0.382 µM (active)
same,AC50,CAAX prenyl protease 1,13.7 µM (active)
same,IC50,[10],20.3 µM (inactive)
same,AC50,CAAX prenyl protease 2,20.7 µM (active)
same,EC50,BJ [11],1.33 µM (inconclusive)
same,EC50,[12],1.05 µM (active)
same,EC50,BJ [13],2.12 µM (active)
same,AC50,Trypsin,23.8 µM (active)
same,EC50,[14],0.178 µM (active)
same,EC50,BJ [15],0.689 µM (active)
same,EC50,[16],18.4 µM (inconclusive)

# Reference: ChEMBL document CHEMBL1201862, “PubChem BioAssay data set” (2004)
